Measurements taken from ChEMBL document CHEMBL5674860, “Optimized Dual-Glo Assay to identify co-culture-induced drug vulnerabilities in 3D CRC models” (2024).

What was measured:
Assay type in all cases: functional, Homo sapiens
Set-up in all cases: dose or concentration left out as unconfirmed
[1] = tested on: Colon cancer organoid; test: Optimized Dual-Glo assay to identify co-culture induced drug vulnerabilities using donated chemical probes and chemogenomics kinase set in O06 CRC organoid and F06 CAF mono and co-culture. […] Cell viability is reported both mono and co-culture models.
[2] = tested on: Colon cancer organoid; test: Optimized Dual-Glo assay to identify co-culture induced drug vulnerabilities using donated chemical probes and chemogenomics kinase set in O14 CRC organoid and F14 CAF mono and co-culture. […] Cell viability is reported both mono and co-culture models.
[3] = tested on: Colon cancer organoid; test: Optimized Dual-Glo assay to identify co-culture induced drug vulnerabilities using donated chemical probes and chemogenomics kinase set in O20 CRC organoid and F20 CAF mono and co-culture. […] Cell viability is reported both mono and co-culture models.
[4] = Culture type Co-Culture, Transduced with Lucferase2-P2A-EGFP lentivirus
[5] = Culture type Co-Culture, Transduced with Renilla-dsRed lentivirus
[6] = Culture type Mono-Culture, Transduced with Lucferase2-P2A-EGFP lentivirus
[7] = Culture type Mono-Culture, Transduced with Renilla-dsRed lentivirus

Cc1cc(-n2nc(Cc3cc(F)cc(C(F)(F)F)c3)nc2C)ccc1C(N)=O [TP-024]
Cell Viability [1, 4]: 141.247%
Cell Viability [1, 5]: 165.614%
Cell Viability [1, 6]: 109.141%
Cell Viability [1, 7]: 106.563%
Cell Viability [2, 4]: 111.425%
Cell Viability [2, 5]: 96.0369%
Cell Viability [2, 6]: 116.033%
Cell Viability [2, 7]: 105.901%
Cell Viability [3, 4]: 120.055%
Cell Viability [3, 5]: 118.791%
Cell Viability [3, 6]: 103.637%
Cell Viability [3, 7]: 122.989%

Cc1cn(-c2cc(NC(=O)c3ccc4c(c3)CN(c3cncnc3)C[C@@H]4C)cc(C(F)(F)F)c2)cn1
Cell Viability [1, 4]: 85.5561%
Cell Viability [1, 5]: 98.7805%
Cell Viability [1, 6]: 59.4105%
Cell Viability [1, 7]: 105.628%
Cell Viability [2, 4]: 105.46%
Cell Viability [2, 5]: 96.2213%
Cell Viability [2, 6]: 134.218%
Cell Viability [2, 7]: 97.9875%
Cell Viability [3, 4]: 88.3808%
Cell Viability [3, 5]: 107.854%
Cell Viability [3, 6]: 86.0975%
Cell Viability [3, 7]: 111.829%

O=C(O)c1ccc2c(c1)nc(Nc1cccc(Cl)c1)c1ccncc12 [SILMITASERTIB]
Cell Viability [1, 4]: 108.166%
Cell Viability [1, 5]: 80.6873%
Cell Viability [1, 6]: 78.7074%
Cell Viability [1, 7]: 100.788%
Cell Viability [2, 4]: 93.7278%
Cell Viability [2, 5]: 109.514%
Cell Viability [2, 6]: 89.7197%
Cell Viability [2, 7]: 119.06%
Cell Viability [3, 4]: 158.738%
Cell Viability [3, 5]: 81.7658%
Cell Viability [3, 6]: 95.6239%
Cell Viability [3, 7]: 79.8512%

C[C@@H](c1cccc(CN)c1)n1cc(Cl)cc(C(N)=O)c1=N.Cl
Cell Viability [1, 4]: 104.535%
Cell Viability [1, 5]: 114.984%
Cell Viability [1, 6]: 142.418%
Cell Viability [1, 7]: 104.758%
Cell Viability [2, 4]: 79.0577%
Cell Viability [2, 5]: 134.768%
Cell Viability [2, 6]: 97.3624%
Cell Viability [2, 7]: 96.7861%
Cell Viability [3, 4]: 85.1583%
Cell Viability [3, 5]: 93.567%
Cell Viability [3, 6]: 85.5992%
Cell Viability [3, 7]: 85.7646%

N#CC1(c2ccccn2)CCN(Cc2cc(C(=O)O)c(=O)n3ccccc23)CC1 [MSD-M1PAM]
Cell Viability [1, 4]: 12.088%
Cell Viability [1, 5]: 188.309%
Cell Viability [1, 6]: 35.5128%
Cell Viability [1, 7]: 99.638%
Cell Viability [2, 4]: 126.16%
Cell Viability [2, 5]: 122.221%
Cell Viability [2, 6]: 72.0486%
Cell Viability [2, 7]: 98.779%
Cell Viability [3, 4]: 53.1969%
Cell Viability [3, 5]: 117.537%
Cell Viability [3, 6]: 81.9362%
Cell Viability [3, 7]: 89.7444%

CC(=O)Nc1ncc(CN2CCC[C@H](Cc3cc(C)nc(C)c3)C2)s1 [JNJ-65355394]
Cell Viability [1, 4]: 144.109%
Cell Viability [1, 5]: 117.923%
Cell Viability [1, 6]: 95.1702%
Cell Viability [1, 7]: 105.247%
Cell Viability [2, 4]: 87.2976%
Cell Viability [2, 5]: 97.4656%
Cell Viability [2, 6]: 96.7484%
Cell Viability [2, 7]: 85.3088%
Cell Viability [3, 4]: 88.5022%
Cell Viability [3, 5]: 103.797%
Cell Viability [3, 6]: 76.2761%
Cell Viability [3, 7]: 119.778%

CC(C)Oc1ccc(-c2nn([C@@H](C)c3oc4ccc(F)cc4c(=O)c3-c3cccc(F)c3)c3ncnc(N)c23)cc1F [UMBRALISIB]
Cell Viability [1, 4]: 96.678%
Cell Viability [1, 5]: 112.425%
Cell Viability [1, 6]: 122.966%
Cell Viability [1, 7]: 119.327%
Cell Viability [2, 4]: 152.127%
Cell Viability [2, 5]: 105.235%
Cell Viability [2, 6]: 156.597%
Cell Viability [2, 7]: 100.314%
Cell Viability [3, 4]: 102.839%
Cell Viability [3, 5]: 87.858%
Cell Viability [3, 6]: 157.324%
Cell Viability [3, 7]: 122.853%

O=C(O)c1ccc(-c2coc3ncc(-c4ccccc4)cc23)cc1Cl
Cell Viability [1, 4]: 226.279%
Cell Viability [1, 5]: 119.386%
Cell Viability [1, 6]: 202.946%
Cell Viability [1, 7]: 112.766%
Cell Viability [2, 4]: 199.753%
Cell Viability [2, 5]: 90.4064%
Cell Viability [2, 6]: 200.801%
Cell Viability [2, 7]: 87.3818%
Cell Viability [3, 4]: 189.357%
Cell Viability [3, 5]: 126.188%
Cell Viability [3, 6]: 202.493%
Cell Viability [3, 7]: 116.18%

Cl.O=C(O)c1cc(-c2ccc(C3CCNCC3)cc2)c2ccc(-c3ccc(C(F)(F)F)cc3)cc2c1
Cell Viability [1, 4]: 107.895%
Cell Viability [1, 5]: 117.47%
Cell Viability [1, 6]: 95.8495%
Cell Viability [1, 7]: 93.2112%
Cell Viability [2, 4]: 74.9682%
Cell Viability [2, 5]: 122.124%
Cell Viability [2, 6]: 85.098%
Cell Viability [2, 7]: 99.5367%
Cell Viability [3, 4]: 105.826%
Cell Viability [3, 5]: 101.384%
Cell Viability [3, 6]: 71.4178%
Cell Viability [3, 7]: 87.2658%

CN1CCN(C(=O)C(C)(C)c2ccc(C(=O)Nc3cn4cc(-c5ccncc5)ccc4n3)cc2)CC1 [T3-CLK]
Cell Viability [1, 4]: 42.8408%
Cell Viability [1, 5]: 189.116%
Cell Viability [1, 6]: 24.3767%
Cell Viability [1, 7]: 109.981%
Cell Viability [2, 4]: 26.2693%
Cell Viability [2, 5]: 164.302%
Cell Viability [2, 6]: 35.9707%
Cell Viability [2, 7]: 93.5791%
Cell Viability [3, 4]: 17.3495%
Cell Viability [3, 5]: 291.942%
Cell Viability [3, 6]: 28.5908%
Cell Viability [3, 7]: 98.0167%

CN(C)C(=O)/C(C#N)=C/c1ccc(-c2nc3cnc4c(ccn4C)c3n2C2CCCCC2)o1
Cell Viability [1, 4]: 100.774%
Cell Viability [1, 5]: 167.563%
Cell Viability [1, 6]: 117.157%
Cell Viability [1, 7]: 133.695%
Cell Viability [2, 4]: 95.1732%
Cell Viability [2, 5]: 102.012%
Cell Viability [2, 6]: 142.854%
Cell Viability [2, 7]: 112.554%
Cell Viability [3, 4]: 49.7098%
Cell Viability [3, 5]: 127.191%
Cell Viability [3, 6]: 136.658%
Cell Viability [3, 7]: 125.979%

Cc1ccc2nc(NCCN)c3ncc(C)n3c2c1.O=C(O)C(F)(F)F.O=C(O)C(F)(F)F
Cell Viability [1, 4]: 94.0156%
Cell Viability [1, 5]: 112.188%
Cell Viability [1, 6]: 113.649%
Cell Viability [1, 7]: 154.019%
Cell Viability [2, 4]: 82.3615%
Cell Viability [2, 5]: 114.809%
Cell Viability [2, 6]: 73.2048%
Cell Viability [2, 7]: 109.465%
Cell Viability [3, 4]: 230.973%
Cell Viability [3, 5]: 67.6056%
Cell Viability [3, 6]: 101.148%
Cell Viability [3, 7]: 93.4293%

O=C(NOC[C@H](O)CO)c1ccc(F)c(F)c1Nc1ccc(I)cc1F [MIRDAMETINIB]
Cell Viability [1, 4]: 8.8965%
Cell Viability [1, 5]: 49.9042%
Cell Viability [1, 6]: 7.213%
Cell Viability [1, 7]: 36.7215%
Cell Viability [2, 4]: 4.141%
Cell Viability [2, 5]: 39.571%
Cell Viability [2, 6]: 2.016%
Cell Viability [2, 7]: 25.7095%
Cell Viability [3, 4]: 3.888%
Cell Viability [3, 5]: 83.5811%
Cell Viability [3, 6]: 5.164%
Cell Viability [3, 7]: 45.8585%

CN1CCN(C(=O)C(C)(C)c2ccc(C(=O)Nc3cn4cc(-c5cc(C(C)(C)C)cc(C(C)(C)C)c5)ccc4n3)cc2)CC1 [T3-CLK-N]
Cell Viability [1, 4]: 119.67%
Cell Viability [1, 5]: 85.6501%
Cell Viability [1, 6]: 109.915%
Cell Viability [1, 7]: 85.7063%
Cell Viability [2, 4]: 129.357%
Cell Viability [2, 5]: 95.6255%
Cell Viability [2, 6]: 93.4655%
Cell Viability [2, 7]: 83.9103%
Cell Viability [3, 4]: 83.0148%
Cell Viability [3, 5]: 112.725%
Cell Viability [3, 6]: 124.688%
Cell Viability [3, 7]: 67.9916%
